pIC50: −log10 of the molar value.
Biological target: T1, Eyes absent homolog 2 [253-538] (Human, UniProt O00167)
T1 construct: 253-538
T1 sequence (O00167 whole entry): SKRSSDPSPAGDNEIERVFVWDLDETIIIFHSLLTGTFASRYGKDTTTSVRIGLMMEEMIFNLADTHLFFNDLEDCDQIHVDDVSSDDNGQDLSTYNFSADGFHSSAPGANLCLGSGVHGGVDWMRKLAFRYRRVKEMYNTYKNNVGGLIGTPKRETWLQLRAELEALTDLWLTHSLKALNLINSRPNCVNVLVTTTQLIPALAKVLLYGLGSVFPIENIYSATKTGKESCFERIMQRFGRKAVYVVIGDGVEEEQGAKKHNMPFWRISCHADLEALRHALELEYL
Assay: Eya Phosphatase Assay
Conditions: pH 6.5; 25 °C
Description: Eya activity was measured in 50-μl reactions using black, 96-well, half-volume microtiter plates (Greiner Bio-one) with the substrate OMFP (3-O-methylfluoresceinphosphate, Sigma-Aldrich), which is converted to a fluorescent product OMF upon dephosphorylation. […] Reactions were started by the addition of OMFP, preceded for 1 h at room temperature followed by terminating the reaction with the addition of 75mMEDTA.

O=C(N/N=C/c1ccc(Sc2ccccn2)s1)c1cccc(F)c1 [NCGC00249327] gave a pIC50 of 5.54.
